Measured values taken from patent US7968081B2, “Peptide for diagnosing, preventing and treating atherosclerosis and uses thereof” (Kyungpook National University Industry—Academic Cooperation …, priority 2007, dated 2011).
Values belong to the molecule of their own block, whether it stands above or below them. Ends that are not written are not given here. * marks the point of attachment. FITC = O=C1OC2(c3ccc(O)cc3Oc3cc(O)ccc32)c2ccc(NC(=S)*)cc21

Experiments:
[1] = tested on: atherosclerotic plaque tissues; experiment: In vivo atherosclerotic targeting of radioisotope-conjugated peptide (autoradiography of aortae); design: species or system mice; conditions: tail vein, circulation 15 min
Protocol: In order to evaluate in vivo targetability of an inventive peptide through a higher sensitivity method, the peptide was synthesized and then an N-terminus of the peptide was tagged with a radioisotope (^111In). The ^111In-tagged peptide of the present invention at a dose of 160 μCi was injected via the tail vein into the blood of atherosclerotic mice and normal mice, followed by circulation for 15 min. Thereafter, aortae were removed from each mouse and autoradiography with X-ray film exposure was carried out. As a control group, the ^123I-tagged peptide (^123I-CLEVSRKNC) was injected at a dose of 104 μCi.

[2] = tested on: IL-4-induced phosphorylation of STAT6; experiment: IL-4-induced phosphorylation of STAT6 in THP1 monocytes differentiated into macrophages (Western blot); type: cell-based
Protocol: (§1) THP1 monocytes were treated and activated with 100 ng/mL of phorbol myristate acetate (PMA) for 3 days to thereby induce differentiation into macrophages. The culture medium was replaced with a serum-free fresh medium, and the cells were cultured for 18 hours and treated with 0.67 nM of IL-4 alone for 10 min. Meanwhile, the peptide of the present invention alone or in conjunction with IL-4 was treated at concentrations of 0.67 nM (1×, one-fold concentration that of IL-4), 6.7 nM (10×, 10-fold concentration that of IL-4) and 67 nM (100×, 100-fold concentration that of IL-4) on cells which are under the same culture phase. After the reaction was complete, cells were disrupted according to a conventional method known in the art and cell lysates were subjected to electrophoresis and Western blot analysis using antibodies. As assay antibodies, STAT6 antibody and phospho-STAT6 (P-STAT6) antibody (Cell Signaling, USA), AKT antibody and phosphor-Thr308-AKT antibody or phosphor-Ser473 AKT antibody (Santa Cruz, USA) and β-actin antibody were used.

[3] = tested on: aortic atherosclerotic plaques; experiment: In vivo atherosclerotic targeting of selected phage clones (phage titer recovered from aorta); design: species or system mice; conditions: tested as phage clone; SEQ ID NO: 1 versus SEQ ID NO: 2
Protocol: (§2) C57BL/6 mice (Ldlr−/−) into which deficiency of a low-density lipoprotein (LDL) receptor was introduced by a genetic engineering technique were fed daily for 10 weeks with 3 g of high-cholesterol diet, thereby inducing atherosclerosis in animals.
Thereafter, aorta were removed from each mouse and aortic tissues were ground to collect cells. The cells were treated with 100 μl of DMEM containing 1% NP-40 at 4° C. for 10 min, and 900 μl of BL21 E. coli culture as a host was then added to recover cell-bound phages. The recover phages were subjected to titer determination by a conventional method known in the art.

[4] = tested on: IL-4-induced phosphorylation of AKT; experiment: IL-4-induced Thr308 and Ser473 phosphorylation of AKT in THP1 monocytes differentiated into macrophages (Western blot); type: cell-based
Protocol: as §1

IL-4R [5] = target: T1, IL-4R (Homo sapiens, UniProt P24394); experiment: Bindability of peptide to IL-4R-expressing CHO-K1 cells (fluorescence microscopy); type: binding; conditions: 10 μM peptide, room temperature, 1 hour
T1 sequence (P24394 26-825): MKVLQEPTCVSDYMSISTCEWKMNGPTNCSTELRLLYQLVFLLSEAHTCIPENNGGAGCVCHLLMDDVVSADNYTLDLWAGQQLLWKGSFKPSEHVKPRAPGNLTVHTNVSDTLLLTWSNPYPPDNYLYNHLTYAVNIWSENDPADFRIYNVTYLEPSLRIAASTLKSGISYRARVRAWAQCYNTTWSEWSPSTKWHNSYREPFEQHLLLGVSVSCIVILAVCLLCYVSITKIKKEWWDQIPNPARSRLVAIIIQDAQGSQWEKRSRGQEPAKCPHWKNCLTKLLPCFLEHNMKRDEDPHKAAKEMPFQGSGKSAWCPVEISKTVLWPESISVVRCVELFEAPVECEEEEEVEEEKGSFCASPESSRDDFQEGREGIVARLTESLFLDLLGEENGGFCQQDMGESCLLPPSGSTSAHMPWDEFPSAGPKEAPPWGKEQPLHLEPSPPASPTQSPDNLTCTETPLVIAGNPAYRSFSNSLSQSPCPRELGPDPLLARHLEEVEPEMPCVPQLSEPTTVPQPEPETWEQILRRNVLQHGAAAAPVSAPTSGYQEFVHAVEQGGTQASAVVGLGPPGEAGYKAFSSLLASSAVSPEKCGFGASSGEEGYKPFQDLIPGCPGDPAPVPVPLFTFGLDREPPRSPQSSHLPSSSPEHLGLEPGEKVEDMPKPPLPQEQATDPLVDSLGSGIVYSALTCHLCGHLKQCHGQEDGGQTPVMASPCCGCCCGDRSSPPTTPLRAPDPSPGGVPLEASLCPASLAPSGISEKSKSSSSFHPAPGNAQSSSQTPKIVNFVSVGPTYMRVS
Description: In order to further confirm roles of IL-4R as the receptor for the peptide of the present invention, a plasmid capable of expressing IL-4R (Cat. #TC119877, Origene, USA) was introduced into IL-4R-deficient CHO-K1 cells according to a conventional method known in the art, followed by expression of IL-4R, and binding of IL-4R with the peptide of the present invention was examined.
The cells were stained with antibodies (1:200 dilution) directed against. IL-4R and cell nuclei were stained with DAPI, followed by fluorescence microscopic examination. As a result, a large amount of IL-4R (red fluorescence) was present on the cell surface (FIG. 6B). Next, CHO-K1 and CHO-K1/IL-4R cells were reacted with 10 μM of the FITC-C-RKRLDRNC peptide at room temperature for 1 hour.

[6] = tested on: atherosclerotic plaque tissues; experiment: In vivo atherosclerotic targeting of fluorescent dye-conjugated peptide (fluorescence microscopy of frozen sections); conditions: atherosclerosis-induced mice; final blood concentration 50 μM via left ventricle, circulation 15 min
Description: as §2, with “animals. The high-cholesterol diet was a special animal feed containing 1.25% cholesterol, 15% fat and 0.5% cholate (Oriental Yeast Co., Japan).” for “animals.”
Here, the peptide was synthesized by tagging an N-terminus of the peptide with FITC (fluorescein isothiocyanate) as a green fluorescent dye. The synthesized FITC-CRKRLDRNC peptide and a control peptide (FITC-NSSVDK) at final blood concentrations of 50 μM were injected into the atherosclerosis-induced mice via the left ventricle of animals, followed by circulation for 15 min. Thereafter, the aortae were removed from each mouse, and frozen sections were prepared, followed by Oil Red O (fat marker, Sigma-Aldrich, USA) staining or vWF (vascular endothelial cell marker, 1:5000 dilution, Abcam, USA) and Mac-3 (macrophage marker, 1:50 dilution, BD, USA) staining (Matter et al., Circulation Research, 95:1225-1233, 2004). In order to stain nuclei in tissues, a mounting medium containing a nuclear staining dye, 4′,6-diamidino-2-phenylindole (DAPI) (manufactured by Molecular Probe, USA) was treated on a slide, according to a conventional method known in the art, followed by fluorescence microscopic examination.

IL-4R [7] = target: T1, IL-4R; experiment: Bindability of peptide to HT-1376 cells with inhibited expression of IL-4R (siRNA); type: binding; design: HT-1376 cells that essentially show constitutive expression of IL-4R; endogenous in cells; host or cells: HT-1376; conditions: same conditions as in FIG. 6 (10 μM, room temperature, 1 hour)
Protocol: Silencing RNA for IL-4R (Cat. #16708A, Ambion, USA) was introduced into HT-1376 cells that essentially show constitutive expression of IL-4R, according to a conventional method known in the art, and treated for 24 hours to thereby result in substantially no expression of IL-4R, followed by evaluation of peptide binding. More specifically, 10 nM of IL-4R silencing RNA synthesized by the manufacturer was mixed with a siPORT™ NeoFX™ lipid transfection agent (Ambion, USA), and the mixture was treated for 24 hours on HT-1376 cells grown in a 4-well chamber slide, such that IL-4R silencing RNA is incorporated into the cells. Thereafter, the culture medium was replaced with one containing 10% bovine serum and the cells were recovered for 24 hours. After staining of cells with IL-4R antibodies and nuclear DAPI staining under the same conditions as in FIG. 6, a cellular expression level of IL-4R was examined. After IL-4R staining, the FITC-CRKRLDRNC peptide was reacted with the cells under the same conditions as in FIG. 6, and a binding degree of the peptide was measured.

[8] = peptide at 100-fold concentration

Molecule: ^123I-CLEVSRKNC (not fully specified (N-terminus); cysteine pairing not given here; also: 123I label, attachment not given here) [123I-tagged control peptide for autoradiography]
radioactivity resulting from aortic targeting of the peptide ([1]; aortae of atherosclerotic mice, 160 μCi (111In peptide) or 104 μCi (123I control)): substantially no detection of radioactivity
radioactivity resulting from aortic targeting of the peptide ([1]; aortae of normal mice, 104 μCi (123I control)): substantially no detection of radioactivity

Molecule: CRKRLDRNC (peptide 1, completely synthesized) [peptide of the present invention]
effect on IL-4-induced phosphorylation of STAT6 ([2]; peptide at 100-fold concentration that of IL-4 (67 nM) with 0.67 nM IL-4): significant inhibitory effects
amount of total STAT6 proteins ([2]; peptide with IL-4): not affected
atherosclerotic targeting, comparison of the two selected phage clones [3]: more intense atherosclerotic targeting
antagonistic effect on Ser473 phosphorylation of AKT relative to Thr308 [4, 8]: greater antagonistic effects
level of Ser473 phosphorylation of AKT versus control group not treated with IL-4 [4, 8]: inhibited to a lower level than that of the control group
effect on IL-4-induced phosphorylation of AKT (Thr308 and Ser473) ([4]; peptide at 100-fold concentration (67 nM) with 0.67 nM IL-4): inhibited

binding to CHO-K1/IL-4R cells (IL-4R-expressing) (IL-4R [5]): no binding
binding to HT-1376 cells (constitutive expression of IL-4R) (IL-4R [7]): almost no binding
Molecule: FITC-NSSVDK ({FITC}-NSSVDK) [FITC-labeled control peptide, reference compound]
peptide found in aortic atherosclerotic plaque tissues (green fluorescence) [6]: substantially no control peptide was found

B1: IL-4: cytokine used as stimulus of STAT6 and AKT phosphorylation (protein)
chain: HKCDITLQEIIKTLNSLTEQKTLCTELTVTDIFAASKNTTEKETFCRAATVLRQFYSHHEKDTRCLGATAQQFHRHKQLIRFLKRLDRNLWGLAGLNSCPVKEANQSTLENFLERLKTIMREKYSKCSS
phosphorylation of STAT6 induced by IL-4 ([2]; 0.67 nM IL-4 alone, 10 min): significant increase
Thr308 and Ser473 phosphorylation of AKT induced by IL-4 ([4]; 0.67 nM IL-4, 10 min): slightly increased
